Test results: US12083113B2, “Use of neuronal nitric oxide synthase inhibitors for immunotherapy in melanoma patients” (Northwestern University, priority 2018, dated 2024)

Key:
[1] = system: human melanoma cell lines (A375, Sk-Mel-28, wm3211); assay: Cytotoxicity by MTT colorimetric analysis in human melanoma cell lines; format: cell-based; settings: read-out: Cytotoxicity (IC50 from 3 melanoma cell lines)
Experimental: Table 1. […] All the NOS isozymes used were recombinant enzymes overexpressed in E. coli. Ki values are calculated directly using known literature methods and detailed in co-PI R. Silverman's published manuscripts (17, 18, 64, 85). Cytotoxic effects of nNOS inhibitors in human melanoma were detected by MTT colorimetric analysis (85). The IC50 values are the average of at least two human melanoma cell lines.

[2] = system: A375 human melanoma xenograft; assay: A375 melanoma xenograft, HH044 20 mg/kg (Example 2)
[3] = system: PD-L1 in A375 melanoma cells; assay: Cell surface PD-L1 expression by flow cytometry; format: cell-based, human
Experimental: FIG. 4. […] Three melanoma cell lines were treated with 250 units/mL of interferons for 48 hours. Whole cell lysates were collected and subjected to RPPA assay. […] Red, high expression; green, low expression. All the data points were normalized for protein loading and transformed to linear value. […] Cell surface expression of PD-L1 was determined by flow cytometry. Representative histograms out of two independent experimental replicates are shown. C) IFN-α or IFN-γ (100 Units/ml); D-E) IFN-α or IFN-γ (250 Units/ml).
Expression levels of PD-L1 detected by Flow Cytometry.

[4] = system: PD-L1 in A375 cells; assay: PD-L1 expression by immunofluorescence staining; format: cell-based, human
Experimental: FIG. 5. Expression of PD-L1 in metastatic melanoma A375 cells detected by immunofluorescence staining. […]. Cells were then fixed and permeabilized with 4% formaldehyde and methanol. Samples were blocked in blocking buffer containing 5% horse serum for 1 hour. The slides were then allowed to incubate in a 1:50 PD-L1 antibody dilution overnight at 4° C. and DAPI reagent for 1 hour. Representative images are shown stained with PD-L1 antibody (green) and DAPI (blue fluorescence). (Original magnifications, 100×). Representative images for 2 experimental replicates are shown.
Expression levels of PD-L1 detected by Immunofluorescence. A375 cells were plated on coverslips and incubated with 250 units/mL of IFN-α or IFN-γ in the presence or absence of […] of nNOS inhibitors for 72 hours. After treatment, cells on coverslips were fixed with 4% formaldehyde/PBS for 15 minutes at room temperature, followed by incubation with ice-cold 100% methanol for 10 minutes at −20° C. Samples were then incubated in blocking buffer (1×PBS, 5% horse serum, 0.3% Triton X-100) for 60 minutes, then in a 1:50 PD-L1 antibody dilution in dilution buffer (1×PBS, 1% BSA, 0.3% Triton X-100) overnight at 4° C. Stained specimens were rinsed with PBS then cured in the dark with DAPI fluorescence staining reagent for 1 hour. Slides were visualized and recorded using the BZ-X700 microscope (Keyence, Itasca, IL).

[5] = system: Human A375 metastatic melanoma xenograft; assay: A375 melanoma xenograft, IFN-γ with or without MAC-3-190; format: in vivo, nude mice
Experimental: FIG. 6. […] Data was represented as mean±SD.
FIG. 7. Expression of PD-L1 in xenograft tumor samples obtained from the subject is administered an inhibitor of NOS and further is administered study detected by immunohistochemistry staining. PD-L1 staining (brown) of specimens at 100× (A) and 20× (B) magnification. […] . PD-L1 (C) and CD8 (D) stained specimens captured at 2× magnification.
In Vivo Xenograft Melanoma. […] .

[6] = system: A375 cells; assay: Cytotoxicity in A375 cells; format: cell-based, human
[7] = system: Sk-mel-28 cells; assay: Cytotoxicity in Sk-mel-28 cells; format: cell-based, human
[8] = system: WM115, Sk-mel-28 and A375; assay: Reverse Phase Protein Array in three human melanoma cell lines; format: cell-based; settings: 250 units/mL interferon, average of three cell lines
Experimental: FIG. 4. A) Heat map of Reverse Phase Protein Array (RPPA) showing distinct effects of IFN-α and IFN-γ on protein expression levels in three human melanoma cell lines (WM115, Sk-mel-28 and A375). Three melanoma cell lines were treated with 250 units/mL of interferons for 48 hours. Whole cell lysates were collected and subjected to RPPA assay. […] Red, high expression; green, low expression. All the data points were normalized for protein loading and transformed to linear value. […] Average changes of three cell lines detected by RPPA were shown in the figure. *, p<0.05 in comparison to control and IFN-α. C-E) Induction of PD-L1 by IFN-γ was diminished by the co-treatment of nNOS inhibitors. […]. Cell surface expression of PD-L1 was determined by flow cytometry. Representative histograms out of two independent experimental replicates are shown. C) IFN-α or IFN-γ (100 Units/ml); D-E) IFN-α or IFN-γ (250 Units/ml).
Reverse Phase Protein Array. Plated cells were treated with 250 units/mL of IFN-α or IFN-γ for […]. After washing with 1×PBS, lysis buffer (1% Triton X-100, 50 mM HEPES, pH 7.4, 150 mM NaCl, 1.5 mM MgCl2, 1 mM EGTA, 100 mM NaF, 10 mM Na pyrophosphate, 1 mM Na3VO4, 10% glycerol and 1% PIC) was added to the plates, followed by incubation on ice for 20 minutes with occasional shaking. Samples were then collected via scraping and spun down at 14,000 g^−1 for 10 minutes at 4° C. The protein concentration was then quantified by Bradford method and adjusted to 1.5 μg/μL with lysis buffer. Cell lysates were then mixed with 4×SDS sample buffer (40% glycerol, 8% SDS, 0.25M Tris-HCl, pH 6.8 with 10% BME). Miniscule amounts of serially diluted protein samples were then dotted on a nitrocellulose coated slide and probed with validated primary antibodies and a biotin-conjugated secondary antibody. The signals were amplified using Dako-Cytomation-Catalyzed system (Dako) and visualized by diaminobenzidine (DAB) colorimetric reaction. Dilution curves were fitted with Supercurve Fitting and the protein expressions normalized for protein loading.

[9] = system: intracellular NO in melanoma cells; assay: Intracellular nitric oxide levels, DAF-FM fluorescence probe; format: cell-based, human; settings: DAF-FM probe after interferon exposure
Experimental: (§1) FIG. 2. A-C) Effects of IFN-α and IFN-γ treatment on nNOS expression levels in human primary melanoma WM3211 cells (A-B) and metastatic melanoma A375 cells. C) Distinct effects of IFN-α and IFN-γ on nNOS expression of A375 metastatic melanoma cells. A375 cells were treated with 500 units/mL of IFN-α or IFN-γ for 48 hours and whole cell lysates were collected. Samples were subjected to Western blot analysis for nNOS. A control of the protein loading was performed by detecting actin. D) Intracellular nitric oxide levels detected by microplate reader using DAF-FM fluorescence probe after IFN-α or IFN-γ treatment for 24 hours. E) IFN-γ-inducible nNOS expression was abrogated in nNOS-depleted melanoma cells. A375 cells transfected with shRNA-nNOS were treated with IFN-γ for 24 hours, followed by Western blot analysis.
Detection of intracellular nitric oxide levels. Cultured cells in a 96-well plate were treated with 100 units/mL of IFN-α or IFN-γ for 48 hours. Once the incubation period was complete, the media was removed and replaced with Hank's Balanced Salt Solution (HBSS). 1 μM of 4-Amino-5-methylamino-2′,7′-difluorofluorescein (DAF-FM) probe was added to each condition and fluorescence levels produced by DAF-FM were detected using a fluorescence microplate reader with excitation and emission wavelengths of 485 and 538 nm, respectively.

[10] = system: nNOS expression in WM3211 cells; assay: Western blot of nNOS expression in primary melanoma WM3211 cells; format: cell-based, human; settings: IFN-γ persisted after 96 hours, IFN-α within 4 hours, recovered by 24 hours
Experimental: as §1
Protein isolation and Western blotting. All samples were kept at 4° C. unless otherwise noted. […]
Equal amounts of protein, as detected by Bradford assay, were loaded and resolved on 7.5% SDS-polyacrylamide gels, then transferred to Immobilon-P^SQ polyvinylidene difluoride (PVDF) membranes (ISEQ00010; Merck KGaA, Darmstadt, Germany). […] Labeled bands were detected using SuperSignal horseradish peroxidase chemiluminescence reagents (1859674; 1859675; Thermo Fisher Scientific, Waltham, MA) and images were captured and analyzed using the Bio-Rad ChemiDoc XRS^+ System.

[11] = system: STAT1; assay: Western blot of STAT1 in A375 cells; format: cell-based, human; settings: interferon alone
Experimental: FIG. 3. […] A375 cells were treated with 100 units/mL and 250 units/mL of IFN-γ or IFN-α for 24 hours; whole cell lysates and nuclear extracts were used for Western blot analysis to detect STAT3 and pSTAT3 respectively. […] Protein isolation and Western blotting. All samples were kept at 4° C. unless otherwise noted.
The membranes were blocked using 10% non-fat milk (NOS1, STAT1/2, Actin, Lamin A/C) or 5% bovine serum albumin (BSA; SH3057402; Fisher Scientific, Waltham, MA) (p-STAT1/3), then incubated with primary antibodies for 1 hour at room temperature or overnight at 4° C., followed by secondary antibodies for 1 hour at room temperature as recommended by the manufacturer. Blots were washed extensively with TBS-T after each antibody incubation.

## N=C(Nc1ccc(CCNCc2cccc(NC(=N)c3cccs3)c2)cc1)c1cccs1 [HH044]
[1]
  IC50: 5.27 ± 3.3 µM
[2]; 20 mg/kg/day for 21 days
  lung, liver, and kidney weights: no significant changes
[2]; 20 mg/kg/day for 21 days, 23.9 g in control group
  body weight: 22.6 g
[2]; 20 mg/kg/day, not statistically significant (p>0.05)
  reduction in body weight: < 10%

## CNCc1cccc(CCc2ccc3c(C)cc(N)nc3c2)c1 [MAC-3-190]
[3]; A375 cells, IFN-γ alone or with MAC-3-190 (3 μM), 72-hour treatment
  MFI of PD-L1 staining obtained via flow cytometry: 1.9 folds of control
[3]; A375 cells, co-treatment with nNOS inhibitor 3 μM, 72 hours
  Induction of PD-L1 by IFN-γ, cell surface expression: diminished
[4]; co-treatment with 3 μM, IFN-γ 250 Units/ml, 72 hours
  IFN-γ-inducible PD-L1 expression: significantly diminished
[4]; treatment with inhibitor alone, compared to control
  basal level of PD-L1: did not alter
[5]; 10 mg/kg/day
  PD-L1 expression in xenograft tumors: significantly reduced
[5]; 21-day treatment, IFN-γ 1000 units per mouse i.p. daily, with or without MAC-3-190 5 mg/kg/day
  PD-L1-positive staining in xenograft tumors (immunohistochemistry): > 15%
[5]; co-treatment, 5 mg/kg subcutaneously injected daily, p<0.05 compared to IFN-γ treatment
  induction in tumor volume by IFN-γ, end of study: effectively diminished

## N.N.[Cl][Pt][Cl] [cisplatin]
[6]
  IC50: 4.2 µM
[7]
  IC50: 14.3 µM

## IFN-α
[3]; interferon alone, three cell lines
  cell surface expression of PD-L1: reduced
[8]
  PD-L1 expression level (RPPA): absent
[4]; interferon alone, 250 Units/ml, 72 hours
  extracellular expression of PD-L1: low basal expression
[9]
  intracellular NO levels: significantly decreased
[10]
  nNOS expression levels: undetectable levels
[11]
  expression of STAT1: increase
